± gives the expanded uncertainty stated by the source.

What is called mass density is the mass of a sample divided by its volume. One may read the speed of sound as how fast a sound wave travels through the sample.

For data set [1] the following is noted: 101 kPa, Liquid; for speed of sound: Sing-around technique in a fixed-path interferometer.
Data set [2] can be described thus: xn = mol fraction of the nth substance listed. The conditions noted are these: 101 kPa, Liquid, x2 = 0; for speed of sound: Sing-around technique in a fixed-path interferometer.

Turning to `CCCCCCO` [hexan-1-ol], in data set [1] (303.15 K), the kinematic viscosity amounted to 4.68e-06 ± 5.6e-08 m2/s, the mass density is listed as 811.65 ± 0.57 kg/m3 and the speed of sound turned out to be 1289 ± 3 m/s. Besides, in data set [1] (313.15 K), the kinematic viscosity worked out at 3.63e-06 ± 4.4e-08 m2/s, the mass density stood at 804.24 ± 0.6 kg/m3 and the speed of sound was 1256 ± 3 m/s.
For `CCCCCCO` [hexan-1-ol] + ClC(Cl)Cl, in data set [2] (303.15 K), the speed of sound is recorded as 1289 ± 3 m/s, the kinematic viscosity turned out to be 4.68e-06 ± 5.6e-08 m2/s and the mass density is given as 811.65 ± 0.57 kg/m3. Further, in data set [2] (313.15 K), the speed of sound is recorded as 1256 ± 3 m/s, the kinematic viscosity was 3.63e-06 ± 4.4e-08 m2/s and the mass density is given as 804.24 ± 0.6 kg/m3.
On to `CCCCCCCO` [heptan-1-ol], for which, in data set [1] (303.15 K), the kinematic viscosity amounted to 6.19e-06 ± 7.1e-08 m2/s, the mass density stood at 814.94 ± 0.57 kg/m3 and the speed of sound was determined as 1312 ± 3 m/s. Further, in data set [1] (313.15 K), the kinematic viscosity was determined as 4.59e-06 ± 5.5e-08 m2/s, the mass density amounted to 807.77 ± 0.6 kg/m3 and the speed of sound is on record as 1278 ± 3 m/s.
Take `CCCCCO` [pentan-1-ol] + ClC(Cl)Cl: in data set [2] (303.15 K), the speed of sound is given as 1264 ± 3 m/s, the kinematic viscosity was 3.73e-06 ± 4.2e-08 m2/s and the mass density was found to be 808.6 ± 0.44 kg/m3. Moreover, in data set [2] (313.15 K), the speed of sound was determined as 1228 ± 3 m/s, the kinematic viscosity stood at 2.89e-06 ± 3.3e-08 m2/s and the mass density turned out to be 800.99 ± 0.48 kg/m3.
In the case of `CCCCCO` [pentan-1-ol], in data set [1] (303.15 K), the kinematic viscosity was 3.73e-06 ± 4.2e-08 m2/s, the mass density came out at 808.6 ± 0.44 kg/m3 and the speed of sound is on record as 1264 ± 3 m/s. Also, in data set [1] (313.15 K), the kinematic viscosity amounted to 2.89e-06 ± 3.3e-08 m2/s, the mass density stood at 800.99 ± 0.48 kg/m3 and the speed of sound turned out to be 1228 ± 3 m/s.
On to `ClC(Cl)Cl` [trichloromethane], for which, in data set [1] (303.15 K), the kinematic viscosity was found to be 3.63e-07 ± 8e-09 m2/s, the mass density was found to be 1469.21 ± 1.1 kg/m3 and the speed of sound stood at 969 ± 2 m/s. In data set [1] (313.15 K), the kinematic viscosity was found to be 3.39e-07 ± 8e-09 m2/s, the mass density amounted to 1449.74 ± 1.1 kg/m3 and the speed of sound was determined as 934 ± 2 m/s.
For `CCCCCCCO` [heptan-1-ol] + ClC(Cl)Cl, in data set [2] (303.15 K), the speed of sound turned out to be 1312 ± 3 m/s, the kinematic viscosity was determined as 6.19e-06 ± 7.1e-08 m2/s and the mass density was determined as 814.94 ± 0.57 kg/m3. In data set [2] (313.15 K), the speed of sound worked out at 1278 ± 3 m/s, the kinematic viscosity amounted to 4.59e-06 ± 5.5e-08 m2/s and the mass density amounted to 807.77 ± 0.6 kg/m3.

The values above are taken from the NIST ThermoML archive (doi:10.1021/je0504459).
